From ChEMBL document CHEMBL1150268, “Novel potent and selective thrombin inhibitors based on a central 1,4-benzoxazin-3(4H)-one scaffold” (J Med Chem, 2008)

Key:
Prothrombin = Prothrombin (Homo sapiens, UniProt P00734); assay: Inhibition of thrombin
[1] = Inhibition of trypsin
Coagulation factor X = Coagulation factor X (Homo sapiens, UniProt P00742); assay: Inhibition of factor 10a
[2] = Selectivity for trypsin over thrombin
[3] = Selectivity for factor 10a over thrombin

Coagulation factor X, sequence (P00742 41-179 limits assumed): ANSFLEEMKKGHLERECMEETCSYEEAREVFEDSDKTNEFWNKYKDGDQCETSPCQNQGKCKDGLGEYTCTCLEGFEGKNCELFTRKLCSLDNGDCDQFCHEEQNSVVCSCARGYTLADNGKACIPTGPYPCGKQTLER
Coagulation factor X, sequence (P00742 235-488 limits assumed): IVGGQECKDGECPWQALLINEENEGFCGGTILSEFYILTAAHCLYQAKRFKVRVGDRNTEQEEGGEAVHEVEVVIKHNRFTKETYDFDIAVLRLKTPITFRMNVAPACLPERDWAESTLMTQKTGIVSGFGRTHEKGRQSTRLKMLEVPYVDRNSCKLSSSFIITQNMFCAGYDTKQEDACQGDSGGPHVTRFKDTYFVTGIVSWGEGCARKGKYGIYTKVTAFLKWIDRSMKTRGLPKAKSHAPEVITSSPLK

What does the source list for CN1C(=O)C(Cc2ccc(C(=N)N)cc2)Oc2cc(N(Cc3ccccc3)C(=O)CCC(=O)O)ccc21 (stereo not given)?
Ki (Prothrombin): 0.0065 µM; Ki [1]: 7.41 µM; Ki (Coagulation factor X): 15.9 µM; Ratio Ki [2]: 1130; Ratio Ki [3]: 2430

Which results are given for CCOC(=O)CCC(=O)N(Cc1ccccc1)c1ccc2c(c1)OC(Cc1ccc(C(=N)N)cc1)C(=O)N2C (stereo not given)?
Ki (Prothrombin): 0.0058 µM; Ki [1]: 3.1 µM; Ki (Coagulation factor X): 1.05 µM; Ratio Ki [2]: 535; Ratio Ki [3]: 181

Which Ki (Prothrombin) does the source give for CN1C(=O)C(Cc2ccc(C(=N)N)cc2)Oc2cc(N(Cc3ccccc3)C(=O)CC(=O)O)ccc21 (stereo not given) here?
Its Ki is 0.0026 µM.

And the Ki [1]?
Its Ki is 298 µM.

What about the Ki (Coagulation factor X) of the same compound?
Its Ki is 139 µM.

What about the Ratio Ki [2] of the same compound?
Its Ratio Ki is 112000.

And the Ratio Ki [3]?
The Ratio Ki was 52500.

For CN1C(=O)C(Cc2ccc(C(=N)N)cc2)Oc2cc(NC(=O)C(Cc3ccccc3)C(=O)O)ccc21 (stereo not given), which Ki (Prothrombin) is on record?
Its Ki is 2.94 µM.

What about the Ki [1] of the same compound?
Its Ki is 5.13 µM.

And the Ki (Coagulation factor X)?
Its Ki is 33.2 µM.

And the Ratio Ki [2]?
Its Ratio Ki is 1.7.

And the Ratio Ki [3]?
The Ratio Ki was 11.

With COC(=O)CC(=O)N(Cc1ccccc1)c1ccc2c(c1)OC(Cc1ccc(C(=N)N)cc1)C(=O)N2C (stereo not given) as the compound, how does the Ki (Prothrombin) read?
The Ki was 0.0034 µM.

And the Ki [1]?
Its Ki is 3.82 µM.

What about the Ki (Coagulation factor X) of the same compound?
The Ki was 5.71 µM.

What about the Ratio Ki [2] of the same compound?
The Ratio Ki was 1130.

And the Ratio Ki [3]?
Its Ratio Ki is 1690.

Which results are given for CCOC(=O)C(=O)N(Cc1ccccc1)c1ccc2c(c1)OC(Cc1ccc(C(=N)N)cc1)C(=O)N2C (stereo not given)?
Ki (Prothrombin): 0.0036 µM; Ki [1]: 4.29 µM; Ki (Coagulation factor X): 1.94 µM; Ratio Ki [2]: 1190; Ratio Ki [3]: 537

With COC(=O)C(Cc1ccccc1)C(=O)Nc1ccc2c(c1)OC(Cc1ccc(C(=N)N)cc1)C(=O)N2C (stereo not given) as the compound, how does the Ki (Prothrombin) read?
The Ki was 2.73 µM.

What about the Ki [1] of the same compound?
The Ki was 11.2 µM.

And the Ki (Coagulation factor X)?
Its Ki is 58.7 µM.

And the Ratio Ki [2]?
The Ratio Ki was 4.1.

What about the Ratio Ki [3] of the same compound?
The Ratio Ki was 22.

For CN1C(=O)C(Cc2ccc(C(=N)N)cc2)Oc2cc(N(Cc3ccccc3)C(=O)C(=O)O)ccc21 (stereo not given), which Ki (Prothrombin) is on record?
The Ki was 0.011 µM.

And the Ki [1]?
The Ki was 10.1 µM.

What about the Ki (Coagulation factor X) of the same compound?
The Ki was 9.27 µM.

What about the Ratio Ki [2] of the same compound?
The Ratio Ki was 910.

What about the Ratio Ki [3] of the same compound?
Its Ratio Ki is 835.
